Values after ≈ are worked out from the molar mass of the structure shown. Like-named read-outs stand apart in the source and are kept apart here.
How the values were obtained:
S. aureus ATCC 29213 = assay type: cell-based, Staphylococcus aureus; conditions: ATCC 29213, 20 h
Protocol: (§1) MIC values of the peptidomimetics were evaluated by using the modified Hancock lab protocol in non-binding polystyrene microtiter plates. Bacterial suspensions of ~5 × 10^5 CFU/mL in Mueller-Hinton broth (Difco, Sparks, MD, USA) were prepared with Mg^2+ and Ca^2+ concentrations of 4 mg/L each. The compounds were dissolved in H2O and diluted in 0.01% acetic acid, 0.2% BSA (final concentration). Aliquots (11 µL) of test compounds were then transferred to wells containing bacterial suspensions (100 µL). Low-binding sterile tubes and tips (Axygen, Union City, CA, USA) were used for preparation and transfer of the solutions of the compounds. Following incubation for 20 h of the covered plates at 35 °C (±2 °C) with circular shaking at 180 rpm, the MICs were read.

P. aeruginosa PAO1 = assay type: cell-based, Pseudomonas aeruginosa; conditions: PAO1, 20 h
Protocol: as §1

[1] = test system: P. aeruginosa NMI 7197/19; assay type: cell-based, Pseudomonas aeruginosa; conditions: NMI 7197/19, 20 h
Protocol: as §1

E. coli NMI 3898/15 = assay type: cell-based, Escherichia coli; conditions: NMI 3898/15, 20 h
Protocol: as §1

E. coli NMI 3371/16 = assay type: cell-based, Escherichia coli; conditions: NMI 3371/16, 20 h
Protocol: as §1

E. coli ATCC 25922 = assay type: cell-based, Escherichia coli; conditions: ATCC 25922, 20 h
Protocol: as §1

[2] = Hydrophobicity by retention in analytical RP-HPLC (% MeCN at peak elution); assay type: physicochemical; conditions: for % MeCN at Elution, Aeris Peptide: Phenomenex Aeris Peptide XB-C18 column; for % MeCN at Elution, Aeris Peptide / % MeCN at Elution, Luna Omega / % MeCN at Elution, Supelco Discovery: gradient 0→60% B during 15 min; for % MeCN at Elution, Luna: Phenomenex Luna C18(2) column, RP-HPLC gradient 0→60% B during 15 min, relative hydrophobicity; for % MeCN at Elution, Luna Omega: Phenomenex Luna Omega Polar C18 column; for % MeCN at Elution, Supelco Discovery: Supelco Discovery BIO Wide pore C18 column
Protocol: For each peptide/β-peptoid hybrid oligomer, the retention time in RP-HPLC was measured on four different columns (details shown in Table 2): Phenomenex Luna C18(2) column (recommended for hydrophobic compounds [49]), Phenomenex Luna Omega Polar C18 column (recommended for both very polar and non-polar compounds [50]) as well as Phenomenex Aeris Peptide XB-C18 [51] and Sigma-Aldrich Supelco Discovery BIO Wide pore C18 [52] columns, which both are recommended for analysis of peptides. The retention times of the compounds on each column were used to calculate the acetonitrile concentration at peak elution (denoted merely as % MeCN; Table 1). As expected, the % MeCN for each compound varied somewhat between the four columns.
Starting materials and solvents were acquired from commercial suppliers (Iris Biotech, Markredwitz, Germany; Fluorochem, Hadfield, UK; and Merck, Darmstadt, Germany) and used without further purification. Water used for analytical and preparative high-performance liquid chromatography (HPLC) was filtered through a 0.22-μm capsule filter using an Evoqua LaboStar Pro TWF UV system. Purity and retention time of each peptidomimetic were determined by analytical HPLC by using a Phenomenex Luna Omega Polar C18 column (150 × 4.6 mm; particle size: 3 μm; pore size: 100 Å) on a Shimadzu Prominence and Shimadzu Nexera system using an aqueous acetonitrile (MeCN, VWR, Søborg, Denmark) gradient with 0.1% trifluoroacetic acid (TFA, Iris Biotech, Markredwitz, Germany) added (eluent A: 5:95 MeCN–H2O + 0.1% TFA, eluent B: 95:5 MeCN–H2O + 0.1% TFA); a flow rate of 0.8 mL/min was used. For elution of peptidomimetics, a linear gradient of 0% to 60% B during 15 min was used with UV detection at λ = 220 nm. […] Retention time of each peptidomimetic was also determined by using a Phenomenex Luna C18(2) column (150 × 4.6 mm; particle size: 3 μm; pore size: 100 Å), a Phenomenex Aeris Peptide XB-C18 column (150 × 4.6 mm; particle size: 3.6 μm; pore size: 100 Å), and a Sigma-Aldrich Supelco Discovery BIO Wide pore C18 column (150 × 4.6 mm, particle size: 3 µm; pore size: 300 Å). For each peptidomimetic, the percentage of MeCN at peak elution was calculated from the retention time by using the following formula:(1) %MeCN =0.95 (0.6Rt/15 min)+0.05 (1−0.6Rt/15 min)

K. pneumoniae ATCC 13883 = assay type: cell-based
Protocol: as §1

E. faecalis ATCC 29212 = assay type: cell-based; conditions: ATCC 29212, 20 h
Protocol: as §1

A. baumannii ATCC 19606 = assay type: cell-based, Acinetobacter baumannii; conditions: ATCC 19606, 20 h
Protocol: as §1

A. baumannii NMI 3658/17 = assay type: cell-based, Acinetobacter baumannii; conditions: NMI 3658/17, 20 h
Protocol: as §1

[3] = Determination of hemolytic activity; assay type: cell-based; conditions: red blood cell suspension in PBS buffer, human red blood cells at 400 µg/mL, 37 °C
Protocol: The lysis of human red blood cells was measured almost as previously described, albeit with modifications. In brief, a suspension of freshly drawn human red blood cells (hRBCs) was washed three times with PBS buffer and centrifuged two times for 5 min at 2500 rpm. A two-fold serial dilution of compounds in PBS buffer was prepared. Plates (conical-bottomed 96-well plates) with three replicate wells per dilution, each containing 1% red blood cell suspension, were prepared and dosed with the test compound to achieve a final concentration of 400 μg/mL in a total volume of 100 μL. The plates were incubated (37 °C) for 60 min with mild agitation, and then the cells were pelleted by centrifugation at 1500 rpm for 5 min. The supernatants (50 μL) were then transferred to a fresh 96-well plate, and the concentration of hemoglobin was detected by measuring the OD at 405 nm. The OD of cells incubated with 1% SDS defined 100% hemolysis, while the OD of cells incubated with PBS buffer defined 0% hemolysis. The concentration tested was 400 μg/mL (only average values are stated in Table 5). The percent hemolysis was calculated by using the formula:(3) Hemolysis (%)=100×[Asample−Aneg.control/Apos.control−Aneg.control]

[4] = test system: HepG2 cell line ATCC HB-8065; assay: Antiproliferative activity on HepG2 cell line (MTT assay); assay type: cell-based; conditions: inhibition of growth of HepG2 cells, 48 h, MTT; highest concentration tested 1280 µg/mL
Protocol: (§2) Effect of compounds on mammalian cell viability was estimated on the HepG2 cell line ATCC HB-8065. In brief, HepG2 cells were seeded into flat-bottomed 96-well plates at a concentration of 5000 cells per well. Subsequently, the cells were incubated for 24 h in a humidified incubator (5% CO2, 37 °C). Then, the medium was removed, and the cells were incubated for 48 h in a humidified incubator (5% CO2, 37 °C) with peptidomimetics in serial dilutions. Then, an 3-(4,5-dimethylthiazol-2-yl)-2,5-diphenyltetrazolium bromide (MTT) assay was performed as previously described. In brief, after incubation with the test compounds, the culture medium was removed, and then fresh medium with 0.2 mg/mL MTT was added into each well of the plate. The cells were then incubated (3 h, 37 °C, 5% CO2), followed by removal of the medium with MTT and addition of 200 μL dimethyl sulfoxide at once to each sample. Absorbance of MTT was measured using the spectrophotometer TECAN Infinite M1000 at 540 nm. The relative viability was calculated by using the formula: ODtreated cells × 100/ODcontrol cells. The IC50 values are calculated by using the program Graph Pad Prism® 5.0. For all compounds, the test range was 10–1280 μg/mL.

[5] = as above; assay type: cell-based; conditions: HepG2 cells; at 1280 µg/mL, value in parenthesis; read-out: HepG2 cell viability at highest concentration tested
Protocol: as §2

Structure (SMILES): NCCCC[C@H](NC(=O)CCN(Cc1ccc(F)cc1)C(=O)[C@H](CCCCN)NC(=O)COCCOCCOCCNC(=O)CCN(Cc1ccc(F)cc1)C(=O)[C@H](CCCCN)NC(=O)CCN(Cc1ccc(F)cc1)C(=O)[C@H](CCCCN)NC(=O)COCCOCCOCCNC(=O)CCN(Cc1ccc(F)cc1)C(=O)[C@H](CCCCN)NC(=O)CCN(Cc1ccc(F)cc1)C(=O)[C@@H](N)CCCCN)C(=O)N(CCC(N)=O)Cc1ccc(F)cc1 [Compound 17, H-[X]2-sPEG3-[X]2-sPEG3-[X]2-NH2]
- MIC, SA (S. aureus ATCC 29213): >64 µg/mL
- MIC, PA (P. aeruginosa PAO1): >64 µg/mL
- MIC, P. aeruginosa NMI 7197/19 [1]: >64 µg/mL
- MIC, E. coli NMI 3898/15 (E. coli NMI 3898/15): 32 µg/mL (≈ 14.3 µM)
- MIC, E. coli NMI 3371/16 (E. coli NMI 3371/16): 8 to 16 µg/mL
- MIC, EC (E. coli ATCC 25922): 8 µg/mL (≈ 3.57 µM)
- % MeCN at Elution, Aeris Peptide [2]: 39.8 % MeCN
- % MeCN at Elution, Luna [2]: 41.8 % MeCN
- % MeCN at Elution, Luna Omega [2]: 42.4 % MeCN
- % MeCN at Elution, Supelco Discovery [2]: 42.0 % MeCN
- MIC, KP (K. pneumoniae ATCC 13883; ATCC 13883, 20 h): >64 µg/mL
- MIC, EF (E. faecalis ATCC 29212): >64 µg/mL
- MIC, AB (A. baumannii ATCC 19606): 16 to 32 µg/mL
- MIC, A. baumannii NMI 3658/17 (A. baumannii NMI 3658/17): 16 µg/mL (≈ 7.14 µM)
- hemolysis at 60 min [3]: 9.4%
- HepG2 IC50 [4]: ~1280 µg/mL
- viability at 48 h [5]: 35%

Structure (SMILES): NCCCC[C@H](NC(=O)CCN(Cc1ccc(F)cc1)C(=O)[C@H](CCCCN)NC(=O)CCN(Cc1ccc(F)cc1)C(=O)[C@H](CCCCN)NC(=O)COCCNC(=O)CCN(Cc1ccc(F)cc1)C(=O)[C@H](CCCCN)NC(=O)CCN(Cc1ccc(F)cc1)C(=O)[C@H](CCCCN)NC(=O)CCN(Cc1ccc(F)cc1)C(=O)[C@@H](N)CCCCN)C(=O)N(CCC(N)=O)Cc1ccc(F)cc1 [Compound 6, H-[X]3-sPEG1-[X]3-NH2]
- MIC, SA (S. aureus ATCC 29213): 32 to 64 µg/mL
- MIC, PA (P. aeruginosa PAO1): 32 µg/mL (≈ 16.3 µM)
- MIC, P. aeruginosa NMI 7197/19 [1]: >64 µg/mL
- MIC, E. coli NMI 3898/15 (E. coli NMI 3898/15): 8 µg/mL (≈ 4.08 µM)
- MIC, E. coli NMI 3371/16 (E. coli NMI 3371/16): 4 µg/mL (≈ 2.04 µM)
- MIC, EC (E. coli ATCC 25922): 4 µg/mL (≈ 2.04 µM)
- % MeCN at Elution, Aeris Peptide [2]: 39.2 % MeCN
- % MeCN at Elution, Luna [2]: 41.2 % MeCN
- % MeCN at Elution, Luna Omega [2]: 41.6 % MeCN
- % MeCN at Elution, Supelco Discovery [2]: 41.4 % MeCN
- MIC, KP (K. pneumoniae ATCC 13883): 64–>64
- MIC, AB (A. baumannii ATCC 19606): 4 to 8 µg/mL
- MIC, A. baumannii NMI 3658/17 (A. baumannii NMI 3658/17): 4 µg/mL (≈ 2.04 µM)
- hemolysis at 60 min [3]: 7.7%
- HepG2 IC50 [4]: 761 µg/mL
- viability at 48 h [5]: 6%

Structure (SMILES): NCCCC[C@H](NC(=O)CCN(Cc1ccc(F)cc1)C(=O)[C@H](CCCCN)NC(=O)CCN(Cc1ccc(F)cc1)C(=O)[C@H](CCCCN)NC(=O)COCCOCCOCCNC(=O)CCN(Cc1ccc(F)cc1)C(=O)[C@H](CCCCN)NC(=O)CCN(Cc1ccc(F)cc1)C(=O)[C@H](CCCCN)NC(=O)CCN(Cc1ccc(F)cc1)C(=O)[C@@H](N)CCCCN)C(=O)N(CCC(N)=O)Cc1ccc(F)cc1 [Compound 8, H-[X]3-sPEG3-[X]3-NH2]
- MIC, PA (P. aeruginosa PAO1): 32 µg/mL (≈ 15.6 µM)
- MIC, P. aeruginosa NMI 7197/19 [1]: >64 µg/mL
- MIC, E. coli NMI 3898/15 (E. coli NMI 3898/15): 8 µg/mL (≈ 3.9 µM)
- MIC, E. coli NMI 3371/16 (E. coli NMI 3371/16): 4 µg/mL (≈ 1.95 µM)
- MIC, EC (E. coli ATCC 25922): 4 µg/mL (≈ 1.95 µM)
- % MeCN at Elution, Aeris Peptide [2]: 39.6 % MeCN
- % MeCN at Elution, Luna [2]: 41.7 % MeCN
- % MeCN at Elution, Luna Omega [2]: 42.1 % MeCN
- % MeCN at Elution, Supelco Discovery [2]: 41.9 % MeCN
- MIC, KP (K. pneumoniae ATCC 13883; ATCC 13883, 20 h): >64 µg/mL
- MIC, EF (E. faecalis ATCC 29212): >64 µg/mL
- MIC, AB (A. baumannii ATCC 19606): 4 to 8 µg/mL
- MIC, A. baumannii NMI 3658/17 (A. baumannii NMI 3658/17): 4 µg/mL (≈ 1.95 µM)
- hemolysis at 60 min [3]: 8.9%
- HepG2 IC50 [4]: 601 µg/mL
- viability at 48 h [5]: 10%

— article PMC8268887, “Peptide/β-Peptoid Hybrids with Ultrashort PEG-Like Moieties: Effects on Hydrophobicity, Antibacterial Activity and Hemolytic Properties” (International Journal of Molecular Sciences, 2021)
